Laboratory results: US6037337A (priority 1994, dated 2000)

Experiments:
[1] = single dose; cited from earlier work
[2] = tested on: childhood rhabdomyosarcoma (HxRh28); conditions: immunoincompetent female CBA/CaJ mice; cited from earlier work
[3] = cited from earlier work
[4] = CNS toxicity monitoring in 7 female cancer patients; format: in vivo, human; conditions: racemate 3 g/m^2, 3 h infusion, mesna
Method: (§1) In a first investigation, the stereoselective urinary excretion of the parent drug, i.e. racemic ifosfamide, and its metabolites, was investigated. This followed a single dose of ifosfamide in 7 female cancer patients, while monitoring for CNS toxicity.
(§2) Patients received a 3 h infusion of ifosfamide (3 g/m^2) with mesna uroprotection, total urine output was collected for 27 h, and urine samples were analysed by enantioselective gas chromatography, as described by Granvil et al, J.Chromatogr. 622:21-31 (1993).
Since ifosfamide was the sole anti-cancer drug administered for the first chemotherapy cycle, toxicity data were not confounded by the effects of other anti-neoplastic agents.

[5] = tested on: non-tumor-bearing Fischer 344 rats; assay: Lethality (non-tumor bearing), within 7-10 days after administration; format: in vivo, Fischer 344 rat
Method: Lethality (Non-Tumor Bearing)
The toxicity was assessed by lethality within 7-10 days after administration of (R)-, (S)-, or (R,S)-ifosfamide in non-tumor-bearing Fischer 344 rats.

[6] = tested on: WBC; assay: Bone marrow suppression, WBC counts; format: in vivo, Fischer (F344) rat; conditions: for myelosuppression (WBC): 1 week after 125 mg/kg i.v.
Method: (§3) FIGS. 1A and 1B show peripheral blood counts obtained in tumor-bearing rats that received saline or ifosfamide treatment. […] There were 3-5 animals in each group. The following abbreviations etc. apply:
(§4) Determination of Myelotoxicity
(§5) For the studies of myelotoxicity, at least three animals/groups had blood obtained by cardiac puncture with a 23-gauge needle. The samples were heparinized and both WBC and platelet counts were determined using a Coulter Counter.
(§6) Measurements were made prior to and 1 week after i.v. injection of 125 mg/kg of (R,S)-, (R)-, or (S)-ifosfamide. […] In the presence of a tumor, the effects of a colony-stimulating factor are evidenced by higher WBC even prior to drug administration. Because the WBC progressively rises over time with exposure to the tumor, the intergroup variation in absolute WBC relates to differences in time from tumor inoculation to baseline WBC measurement and then drug administration.

[7] = tested on: platelets; assay: Bone marrow suppression, platelet counts; format: in vivo, Fischer (F344) rat; conditions: for thrombocytopenia: 1 week after 125 mg/kg i.v.
Method: as §3, §4, §5, §6

[8] = tested on: tumor-bearing F344 rats (MatB rat mammary carcinoma); assay: Lethality (tumor-bearing), toxic deaths; format: in vivo; conditions: for toxic deaths (of animals treated): tumor-bearing
Method: (§7) In order to help clarify the relative efficacies and toxicities of (S)-IFF and (R)-IFF, the effect of these enantiomers in F344 rats was investigated. Both non-tumor-bearing animals and those bearing a MatB rat mammary carcinoma were used in this study. The relative lethality, bone marrow suppression, weight loss, antitumor activity, and pharmacokinetics were determined for (R)-IFF, (S)-TFF and (R,S)-IFF.
Animal Model and Tumor Cells
(§8) MatB cells are maintained in vitro in α-minimum essential medium (GIBCO, Grand Island, N.Y.) supplemented with 1.3% sodium pyruvate, 2.6% glutamine, 1.3% non-essential amino acids, 10% fetal calf serum, and 100 units/ml gentamicin. Cells are maintained at 37° C. under 5% CO2. A suspension of 5×10^5 cells is injected s.c. into the flanks of female F344 rats weighing 160-200 g. Within 7-10 days, when there is a palpable nodule, the rats are lightly anesthetized with ether, and a single i.v. dose of ifosfamide is injected via the tail vein. The tumor size and animal weights are monitored every other day. On the basis of the conventional rat human dose conversion factor of 1:7 and idealised human body weights and surface areas of 70 kg and 1.5 m^2, the dose of 100 mg/kg in the rat represents approximately 600 mg/m^2 in humans, which is in the general range of clinical single doses, as described by De Kraker, supra. Statistical analysis was performed using an impaired Student's s test or Pearson's .chi.^2 analysis.
There were differences resulting in the presence of a tumor in these animals with regard to the effects of these treatments, and the data are therefore presented for each situation separately.

[9] = Incubation with human liver microsomes, 2 and 3-dechlorometabolites by chiral assays; format: in vitro ADME; conditions: for 2 and 3-dechloro metabolites produced, R and S-ifosfamide incubated separately: separate enantiomers, compared with racemate results
[10] = tested on: MatB rat mammary carcinoma; assay: Antitumor efficacy in rats, enantiomer comparison; format: in vivo, Fischer (F344) rat; conditions: R-isomer; summary statement
Method: as §7
as §8, with “Statistical analysis was performed using an impaired Student's s test or Pearson's .chi.^2 analysis.” left out

[11] = Weight loss, every-other-day measurements; format: in vivo, F344 rat; conditions: 125 mg/kg
Method: as §8
Weight loss was determined by every-other-day measurements of groups of at least three rats.

[12] = Pharmacokinetics in rat plasma (GC-MS), AUC
[13] = CBA/CaJ mice; cited from earlier work
[14] = Analysis of urine of 11 patients after 3 hour infusion of racemic ifosfamide; format: in vivo, human
Method: This is based on the results of the analysis of the urine of 11 patients who received a 3 hour infusion of racemic ifosfamide. Patients had not received chemotherapy for a year and ifosfamide was the only drug administered during the pharmacokinetic study.

[15] = Stereoselective urinary excretion of ifosfamide and metabolites in 7 female cancer patients; format: in vivo, human; conditions: patient with severe neurotoxicity vs 6 others
Method: as §1, §2
In patients with excessive N-dechloroethylation, R-ifosfamide could have an improved efficacy/toxicity.

[16] = tested on: MatB subline selected for resistance to nitrogen mustards; assay: Melphalan resistance of MatB subline in vivo; set-up: species or system rat

O=P1(NCCCl)OCCCN1CCCl (racemic) [(R,S)-IFF, ifosfamide, reference compound]
compound metabolised through the N-dechloroethylation pathway [1]: 15-50%
drug excreted unchanged [1]: 20-40%
efficacy against HxRh28 xenograft, difference between stereoisomers [2]: no statistically significant differences
CNS side-effects ([3]; oral formulation): major dose-limiting side-effect
dose at which CNS side-effects appeared, oral versus iv ([3]; oral vs iv): much lower dose
chloroacetaldehyde levels after oral dosing ([3]; oral): higher levels of chloroacetaldehyde
metabolism after oral dosing ([3]; oral): much more metabolism
severe neurotoxic syndrome (patients) ([4]; 7 female patients): One patient had a severe neurotoxic syndrome
neurotoxic symptoms ([4]; one patient): somnolence, dizziness, lethargy, tremors, and hallucinations
lethality (rats dead of rats treated) ([5]; 150 mg/kg): 2 of 4
lethality (rats dead of rats treated) ([5]; 100 and 125 mg/kg): 1 of 5
myelosuppression (WBC) ([6]; tumor-bearing rats): significant myelosuppression
myelosuppression (WBC) ([6]; tumor-free rats): myelosuppression is observed
thrombocytopenia ([7]; non-tumor-bearing rats): significant thrombocytopenia
toxic deaths (of animals treated) ([8]; 100 mg/kg): 0 of 5
toxic deaths (of animals treated) ([8]; 125 mg/kg): 4 of 10
toxic deaths (of animals treated) ([8]; 150 mg/kg): 5 of 5

O=[P@]1(NCCCl)OCCCN1CCCl [(R)-IFF, dexifosfamide]
efficacy against HxRh28 xenograft, difference between stereoisomers [2]: no statistically significant differences
2 and 3-dechloro metabolites produced, R and S-ifosfamide incubated separately [9]: broadly the same
effectiveness in treating the tumors in the rats [10]: trend to the R-isomer being more effective
lethality (rats dead of rats treated) ([5]; 150 mg/kg): 2 of 4
lethality (rats dead of rats treated) ([5]; 100 and 125 mg/kg, listed as (R)-ifosfamide): 1 of 5
myelotoxicity in the Fischer rat ([6]; summary statement): more myelotoxic
myelosuppression (WBC) ([6]; tumor-bearing rats): significant myelosuppression
myelosuppression (WBC) ([6]; tumor-free rats): myelosuppression is observed
weight loss [11]: appears greatest
weight loss, statistical significance [11]: significantly so only at one time point
platelet suppression compared to (R,S)- or (S)-ifosfamide ([7]; non-tumor-bearing rats, 125 mg/kg i.v., P<0.05): greater platelet suppression
thrombocytopenia ([7]; non-tumor-bearing rats): significant thrombocytopenia
toxic deaths, compared to (R,S)-IFF ([8]; 125 mg/kg, chi-square): no difference
toxic deaths, (R)-IFF compared to (S)-IFF ([8]; 125 mg/kg, chi-square, P=0.017): significant difference
toxic deaths, (R)-IFF versus either (S)-IFF or (R,S)-IFF ([8]; 150 mg/kg, P=0.067): no significant difference
toxic deaths (of animals treated) ([8]; 100 mg/kg): 1 of 5
toxic deaths (of animals treated) ([8]; 125 mg/kg): 5 of 10
toxic deaths (of animals treated) ([8]; 150 mg/kg): 5 of 5
clearance compared to (S)-IFF ([12]; rat): cleared more quickly
AUC, AUCRS versus AUCR ([12]; rat plasma, 100 mg/kg i.v.): no statistically significant difference
AUC, AUCR versus AUCS ([12]; rat plasma, 100 mg/kg i.v., P<0.01): statistically significant differences
metabolism via the activation pathway, compared to (S)-IFF ([12]; rat, inferred from AUC): metabolized to a greater degree

O=[P@@]1(NCCCl)OCCCN1CCCl [(S)-IFF, levoifosfamide]
efficacy against HxRh28 xenograft, difference between stereoisomers [2]: no statistically significant differences
2 and 3-dechloro metabolites produced, compared to R-ifosfamide ([9]; racemic ifosfamide incubated): greater amounts
2 and 3-dechloro metabolites produced, R and S-ifosfamide incubated separately [9]: broadly the same
lethality (rats dead of rats treated) ([5]; 150 mg/kg): 0 of 4
lethality (rats dead of rats treated) ([5]; 100 and 125 mg/kg, listed as (S)-ifosfamide): 0 of 5
myelosuppression (WBC) ([6]; tumor-bearing rats): no such effect after (S)-IFF where the WBC is higher
myelosuppression (WBC) ([6]; tumor-free rats): not statistically significant
plasma pharmacokinetics, differences [13]: No statistically significant differences
origin of side-chain metabolites in urine [14]: side-chain metabolites come from S-ifosfamide more than from R-ifosfamide
thrombocytopenia ([7]; non-tumor-bearing rats): significant thrombocytopenia
platelet suppression compared to (R)- or (R,S)-ifosfamide ([7]; tumor-bearing rats, 125 mg/kg i.v.): significantly less
toxic deaths, compared to (R,S)-IFF ([8]; 125 mg/kg, chi-square): no difference
toxic deaths (of animals treated) ([8]; 100 mg/kg): 0 of 5
toxic deaths (of animals treated) ([8]; 125 mg/kg): 2 of 10
toxic deaths (of animals treated) ([8]; 150 mg/kg, listed as (S)-ifosfamide): 3 of 5
excretion of dechloroethylated metabolites from S-ifosfamide [15]: much higher excretion
metabolism via N-dechloroethylation, compared to (R)-IFF ([12]; stated with the rat AUC results): metabolized to a greater extent

N[C@@H](Cc1ccc(N(CCCl)CCCl)cc1)C(=O)O [melphalan]
resistance to melphalan [16]: at least 4 fold
